# Several values for one entry are separate records, joined by “and”; a condition that tells them apart may be missing. Equal values may be shown once. Marks after values point to notes of the source that are not given here. Where a SMILES comes first, the peptide text is derived from it.
# What was measured:
# [1] = test system: purulent incised crushed wounds of the femural soft tissues; assay: Healing of purulent incised crushed wounds of the soft tissues; format: in vivo, shinshilla rabbits; set-up: key to Fibroblasts / Histiocytes / Leukocyles / Macrophases / Necrosis: 1 point - absent; 2 points - single (traces); 3 points - few; 4 points - diffuse (moderately); 5 points - many-,; 6 points - very many
# Excerpt: (§1) The efficacy of L-Lys-L-Glu dipeptide was estimated on the model of purulent incised crushed wounds of the femural soft tissues in shinshilla rabbits of both sexes with body weight 2-3 kg. Therefore, the rabbits underwent shaving in the area of femural soft tissues with subsequent incision 5 cm long and 2 sm deep. Soft tissues (muscles, subcutaneous fat) were crushed with Kocher 's forcepts and infected with the pathogenic mixture Staphylococcus aureus, strain 186. Afterwards, the wound was sutured. In 72 hours the sutures were lifted; and the wound was treated with 3% solution of hydrogen peroxide.
# (§2) The animals of experimental group were injected intramuscularly every day for five days with dipeptide L-Lys-L-Glu in a single dose 1 μkg per injection. Control rabbits were injected with sodium chloride solution according to the same scheme. In the process of treatment the wounds were treated with antiseptic remedies for external use.
# (§3) The estimation of L-Lys-L-Glu dipeptide efficacy in the dynamics of the inflammatory process regression was based on the terms of crust rejection and wound clearance from the pyo-necrotic mass, and appearance of the granular tissue in the wound and beginning of edge epithelization. […] The activity of tissue enzymes was also estimated (5,6,7).
# [2] = test system: inflammation of salivary glands and sialolithic disease; assay: Clinical treatment of inflammation of salivary glands and sialolithic disease; format: in vivo, patients; details: 1 μkg i.m. daily for 5 days
# Excerpt: 45 patients were being observed. Of these, 27 people had inflammations of the salivary glands, 4 of whom had parotitis. 18 people suffered sialolithic disease of the submandibular gland. The average age of the patients was 35-40. All the patients with the sialolithic disease had the stones extracted. 30 patients (15 of them had inflammation of the salivary gland and the other 15 had sialolithic disease) underwent daily intramuscular injections of L-Lys-L-Glu dipeptide 1 μkg. for 5 days.
# The patients of the control group underwent standard treatment: antibacterial, desensitization therapy, iodine-dimexid dressings, physical therapy (ultrasonics, 5-10% potassium iodide electrotherapy on the gland area), local treatment (washing the glands with the solution of antiseptics and antibiotics).
# [3] = test system: duodenum mucous membrane cells; assay: Regeneration of the intestinal mucous membrane after radiation injury; format: in vivo, white male rats of the Wistar line; details: 8th day
# Protocol: The work has been performed on 24 two-month-old white male rats of the Wistar line, weighing 90-100 grams. The following three groups of animals were researched;
# 2 group—control (irradiated animals);
# 3 group—irradiated animals injected with L-Lys-L-Glu dipeptide.
# A general single γ—irradiation of 6 Gy, inducing “the syndrome of intestinal death”, was made by the cobalt apparatus GUB 20000, with the dose capacity of 200 rad/min.
# L-Lys-L-Glu dipeptide was injected 24 hours after the irradiation—0.5 μkg in 0.5 ml of the […]—intraperitoneally during 5 days. The animals from the first and second groups received the […] by the same scheme.
# The study of L-Lys-L-Glu dipeptide's action has been performed on the proximal section of the duodenum of irradiated animals. The animals were killed under nembutal narcosis (50 mg/kg on the 8th day after irradiation (beginning of the period of repair regeneration). Pieces of the duodenum were being preserved during 24 hours by Karnovsky for the electronic microscopy.
# The ultra-structural research was conducted under the JEM-100S microscope (JEOL, Japan) at the ultra-thin microscopic sections prepared on the LKB-7A ultra-microtome (LKB, Sweden) and contrasted by uranilacetatc and lead cytrate.
# Mast cells were selectively stained with 1% solution of toluidine blue (Fluka) in 0,5 M HCl, with pH—0.5 (8,9).
# To reveal MTL-positive cells, were used rabbits' antibodies to metal-tioneins (1-2000).
# Immunohistochemical identification of antigenes at the histological sections was made according to the main requirements to immune-peroxydase methods (10,11).
# The quantity research was conducted with the help of the system of computer analysis of microscopic images—IMSTAR (Imstar, France)—the Morphostar-2 and Colquant-2 license applied software were employed, in accordance with the general principles of stereology in morphometry (12, 13). For each animal, the calculation of corresponding structures was made In ten visual eye sights by three sections of the studied organ. The mitotic index (1mit) and the index of proliferating ability (Ipcna) of the duodenum cells were defined in 10-15 standard sections of crypts, with the overall contents of not less than 1000 nuclei of enterocytes. The test area for finding serotonin-positive and mast cells covered not less than 3 mm^2. MML-positive cells were counted in 100 duodenum crypts.
# [4] = test system: sluggish-granulating wounds and phlegmon of the maxillofacial zone; assay: Clinical complex treatment of pyo-inflammatory diseases of different localization; format: in vivo; details: patients, 1 μkg i.m. every day during ten days
# Protocol: 1 μkg of the preparation was injected intramuscularly, every day during ten days. Effectiveness of the treatment was evaluated in dynamics according to the changes in activity of wound enzymes and time of healing.
# [5] = test system: purulent incised crushed wounds of the femural soft tissues; assay: Healing of purulent incised crushed wounds of the soft tissues; format: in vivo, shinshilla rabbits; set-up: key: 1 point - absent; 2 points - single (traces); 3 points - few; 4 points - diffuse (moderately); 5 points - many-;; 6 points - very many; details: rabbits, 1 μkg i.m. daily 5 days
# Excerpt: as §1, §2, §3
# [6] = rabbits, 1 μkg i.m. daily 5 days
# [7] = rabbits, 1 μkg i.m. daily 5 days, day 6
# [8] = rabbits, 1 μkg i.m. daily 5 days, day 14
# [9] = rabbits, 1 μkg i.m. daily 5 days, day 21
# [10] = rabbits, 1 μkg i.m. daily 5 days, day 29
# [11] = rabbits, 1 μkg i.m. daily 5 days, day 40
# [12] = patients with sialolithic disease
# [13] = irradiated rats 6 Gy, 0.5 μkg i.p. during 5 days, duodenum
# [14] = irradiated rats 6 Gy, 0.5 μkg i.p. during 5 days, duodenum crypts
smiles,measurement,setting,value
"NCCCC[C@H](N)C(=O)N[C@@H](CCC(=O)O)C(=O)O [L-Lys-L-Glu dipeptide, L-lysil-L-glutamic acid] (H-Lys-Glu-OH)",activity of acid phosphatase in histiocytes,[1]; phase of proliferation (14-28 days),high activity of acid phosphatase in histiocytes
same,Terms of complete clearance of the wound surface from necrotizing tissues,[1]; [6],14.2 + −1.3* days
same,Terms of the wound epithelization,[1]; [6],24.9 + −1.9* days
same,Terms of tile onset of necrotizing tissue rejection form the wound surface,[1]; [6],8.3 + −1.1*
same,Fibroblasts,[1]; [7],4*
same,Histiocytes,[1]; [7],4
same,Leukocyles,[1]; [7],5
same,Macrophases,[1]; [7],3
same,Necrosis,[1]; [7],3*
same,Fibroblasts,[1]; [8],5*
same,Histiocytes,[1]; [8],5*
same,Leukocyles,[1]; [8],5
same,Macrophases,[1]; [8],3
same,Necrosis,[1]; [8],2*
same,Fibroblasts,[1]; [9],5
same,Histiocytes,[1]; [9],5
same,Leukocyles,[1]; [9],4
same,Macrophases,[1]; [9],2
same,Necrosis,[1]; [9],2*
same,Fibroblasts,[1]; [10],5
same,Histiocytes,[1]; [10],4
same,Leukocyles,[1]; [10],4*
same,Macrophases,[1]; [10],2
same,Necrosis,[1]; [10],1
same,Fibroblasts,[1]; [11],6*
same,Histiocytes,[1]; [11],6*
same,Leukocyles,[1]; [11],2
same,Macrophases,[1]; [11],2*
same,Necrosis,[1]; [11],1
same,activity of alkaline phosphatase in foci of leukocytory infiltration and vascular endothelium,"[1]; rabbits, wound tissue",high activity of alkaline phophotase
same,pains in the gland and discharge of pus,[2]; patients with inflammation of the salivary gland,"on the fourth-fifth day after the treatment, stopped having pains in the gland and the discharge of pus from the gland ducts"
same,discharge of pus from the gland ducts,[2]; [12],stopped having the discharge of pus from the gland ducts
same,swelling and infiltration of soft tissues and mucous membrane of the mouth cavity,[2]; [12],resolved on the third fourth day after the operation
same,period of treatment,[2]; patients,shortened the period of treatment
same,NMC/1 mm^2 (quantity of mast cells/1 square mm),[3]; [13],24 ± 3 /1 mm^2
same,NMT/100 crypts (quantity of L-positive cells in 100 intestine crypts),[3]; [13],102 ± 9 /100 crypts
same,Pser (volume density of serotonin-immunopositive cells),[3]; [13],0.71 ± 0.09%
same,IPCNA (index of cell proliferative ability-PCNA),[3]; [14],49.89% and 49.8 ± 0.7 %
same,Imit (mitotic index),[3]; [14],4.7% and 4.7 ± 0.1%
same,MTL-positive cells in the crypts' base,[3]; irradiated rats,tendency to the increase of number and intensity of immune-staining
same,quantitative density of enterochromaffinn cells,[3]; irradiated rats,practically gets equal to that of healthy animals
same,activity of wound enzymes,[4],increased the activity of wound ferments in the first phase of the wound process
same,clearance of the wounds from necrotic tissues,[4],accelerate clearance of the wounds from necrotic tissues
same,treatment period,[4],reduction of the treatment period
same,Acid phosphotase in histiocytes,[5]; day 6,5*
same,Alcaline phosphotase in vessels,[5]; day 14,5
same,Acid phosphotase in histiocytes,[5]; day 21,5
same,Alcaline phosphotase in leukocytes,[5]; day 21,5
same,Alcaline phosphotase in vessels,[5]; day 21,5*
same,Acid phosphotase in histiocytes,[5]; day 28,5*
same,Acid phosphotase in histiocytes,[5]; day 40,5*
same,Alcaline phosphotase in leukocytes,[5]; day 40,5
